Laboratory results published in BindingDB's records for doi:10.1021/jm201510p (Abo Akademi University, 2012).

Biological target: T1, Poly [ADP-ribose] polymerase tankyrase-2 (Homo sapiens, UniProt Q9H2K2)
T1 sequence (Q9H2K2 whole entry): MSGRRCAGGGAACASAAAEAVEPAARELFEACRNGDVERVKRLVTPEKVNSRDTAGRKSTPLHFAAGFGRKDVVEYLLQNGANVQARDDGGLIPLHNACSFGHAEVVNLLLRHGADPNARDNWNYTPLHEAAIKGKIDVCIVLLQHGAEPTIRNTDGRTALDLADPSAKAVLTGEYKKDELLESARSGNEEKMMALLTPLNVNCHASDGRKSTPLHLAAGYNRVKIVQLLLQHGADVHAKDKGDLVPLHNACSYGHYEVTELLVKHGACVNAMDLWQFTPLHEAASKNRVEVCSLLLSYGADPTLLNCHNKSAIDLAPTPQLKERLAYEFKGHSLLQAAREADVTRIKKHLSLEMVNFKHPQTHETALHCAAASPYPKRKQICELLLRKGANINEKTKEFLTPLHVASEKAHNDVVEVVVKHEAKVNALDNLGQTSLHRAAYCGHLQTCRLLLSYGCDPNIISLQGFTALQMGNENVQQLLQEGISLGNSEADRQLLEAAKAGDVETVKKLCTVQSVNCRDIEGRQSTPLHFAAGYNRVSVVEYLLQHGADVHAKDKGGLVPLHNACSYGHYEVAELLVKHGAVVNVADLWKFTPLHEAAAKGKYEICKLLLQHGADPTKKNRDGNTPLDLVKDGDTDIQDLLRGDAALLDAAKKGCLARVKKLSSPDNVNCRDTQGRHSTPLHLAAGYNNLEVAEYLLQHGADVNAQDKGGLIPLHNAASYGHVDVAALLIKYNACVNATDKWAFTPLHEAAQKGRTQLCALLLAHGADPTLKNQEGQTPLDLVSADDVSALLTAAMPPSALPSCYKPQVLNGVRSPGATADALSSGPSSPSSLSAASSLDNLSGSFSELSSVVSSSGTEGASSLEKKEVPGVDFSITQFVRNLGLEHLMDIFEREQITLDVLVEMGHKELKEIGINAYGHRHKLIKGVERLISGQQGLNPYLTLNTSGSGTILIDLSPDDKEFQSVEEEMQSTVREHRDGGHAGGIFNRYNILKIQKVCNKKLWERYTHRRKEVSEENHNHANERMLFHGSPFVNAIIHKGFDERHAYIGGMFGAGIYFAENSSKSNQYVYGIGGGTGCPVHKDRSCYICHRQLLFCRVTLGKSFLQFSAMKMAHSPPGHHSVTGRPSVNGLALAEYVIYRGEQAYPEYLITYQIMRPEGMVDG
Assay: Activity of N-terminus hexaHis-tagged human TNSK2 expressed in Escherichia coli BL21 (DE3) cells using biotinylated NAD+ as substrate after 90 mins by Western blot analysis

Row | Compound | EC50
1 | O=C(Nc1ccccc1)c1ccc(-n2c(O)c3c(c2O)[C@H]2C=C[C@@H]3C2)cc1 | > 25 µM
2 | O=C(NC1CCCCC1)c1ccc(-n2c(O)c3c(c2O)[C@H]2C=C[C@@H]3C2)cc1 [N-Cyclohexyl-4-((1R,2S,6R,7S)-3,5-dioxo-4-aza-tricyclo[5.2.1.0*2,6*]dec-8-en-4-yl)-benzamide] | > 25 µM
